According to patent US20260284030A1, “METHODS OF TREATING HEART FAILURE” (THE CHILDREN'S MEDICAL CENTER CORPORATION, priority 2022, published 2026):

Experiments:
DBA/1 J mice with CIA [1] = assay: Collagen induced arthritis (CIA) model, arthritis severity scoring; type: in vivo, mouse; conditions: for arthritis score: CIA mice, 10 mg/kg oral gavage once daily from day 30, n=8
From the text: (§1) DBA/1 J mice were purchased from Jackson Laboratory. All mice were kept specific pathogen free. Experimental protocols were approved by the Institutional Animal Care and Use Committee of Boston Children's Hospital (Protocol number: 20-01-4096R). To conduct a time-course study investigating onset and persistence of the cardiac dysfunction in DBA/1 J, the following groups were studied: DBA/1 J with CIA, DBA/1 J age-matched wild type, DBA/1 J with CIA treated with PAD4 inhibitor, DBA/1 J with CIA treated with 0.5% Methylcellulose (vehicle of the PAD4 inhibitor). The PAD4 specific inhibitor JBI-589 was provided by Jubilant Therapeutics (JBI-589, (R)-(3-aminopiperidin-1-yl)(2-(1-(4-fluorobenzyl)-1H-indol-2-yl)-3-methylimidazo[1,2-a]pyridin-7-yl)methanone). Mice received JBI-589 at a dose of 10 mg/kg via oral gavage for 26 consecutive days. JBI-589 was given in suspension formulation prepared using Tween-80 and 0.5% methyl cellulose. For the PAD4 inhibitor trial, mice were paired depending on their RA severity score and randomly allocated to treatment or control group. All recurring events including animal scoring and administration of inhibitor was done at similar times during the day. All groups were age and sex matched and were fed ad libitum with free access to water. All procedures conform with the NIH Guide for the Care and Use of Laboratory Animals. Experimental protocols were approved by the Institutional Animal Care and Use Committee of Boston Children's Hospital (Protocol number: 20-01-4096R).
DBA/1 J mice aged 8-9 weeks were immunized with an emulsion of 50 μl CFA (Chondrex, Inc.; Catalog no. 7023) and 50 μl of bovine type II collagen (Chondrex, Inc.; catalog no. 20012) injected intra-dermally into the base of the tail on day 0. On day 21, a booster immunization of type II collagen with Freund's incomplete adjuvant (IFA) (catalog no. 7002; Chondrex) was administered intra-dermally at a site proximal to the first injection site. Mice were assessed for development of arthritis using the semi-quantitative, mouse arthritis scoring system provided by Chondrex (chondrex.com). […]

DBA/1 J mice with CIA [2] = assay: Echocardiography of LV function and geometry in CIA mice; type: in vivo, mouse; conditions: n=8
From the text: as §1, with “All procedures conform with the NIH Guide for the Care and Use of Laboratory Animals. Experimental protocols were approved by the Institutional Animal Care and Use Committee of Boston Children's Hospital (Protocol number: 20-01-4096R).” left out
B-Mode, M-mode, and Doppler echocardiography were performed in DBA/1 J mice with CIA, DBA/1 J mice with CIA treated with PAD4 inhibitor or saline administration and age-matched DBA/1 J mice at day 0, day 25, day 45 and day 56 for time-course analysis of cardiac function. […] Body temperature was regulated through a heat pad and heart rate measured with an electrocardiogram, both were kept consistent between experimental groups (37° Celsius and 400-500 bpm). Echocardiography images were recorded using a Vevo-3100 imaging system with a 25-55-MHz linear probe (MX550D; VisualSonics, Toronto, Canada). Percentage of ejection fraction was calculated in parasternal long-axis view. M-mode was measured at the papillary muscle level in the short-axis view. […]

DBA/1 J mice with CIA [3] = assay: Immunostaining of LV cryosections (Collagen I, Ly6G/H3Cit, VWF, TGF-β, alpha smooth muscle actin); type: in vivo, mouse
From the text: as §1
Cryosections of 8-μm were fixed in 4% paraformaldehyde, permeabilized with 0.1% Triton, blocked in 3% BSA, and incubated overnight at 4° C. with the following primary antibodies: Anti-Collagen I (Abcam; ab21286); anti-Ly6G (clone 1A8; BioLegend); anti-H3Cit (Abcam; ab5103); anti-CD31 (BD Pharmingen; 553370); anti-VWF (DakoCytomation; P0226); anti-CD42b (Emfret; M040-0); anti-CD45 (Abcam; ab154885); anti-TGF beta (Abcam; ab66043); anti-alpha smooth muscle actin (Abcam; ab5694), and anti-CD68 (Abcam; ab53444). […]

DBA/1 J mice with CIA [4] = assay: Peripheral blood counts (circulating neutrophils); type: in vivo, mouse; conditions: any timepoint
From the text: as §1, with “All groups were age and sex matched and were fed ad libitum with free access to water. All procedures conform with the NIH Guide for the Care and Use of Laboratory Animals. Experimental protocols were approved by the Institutional Animal Care and Use Committee of Boston Children's Hospital (Protocol number: 20-01-4096R).” left out
Blood was collected from anesthetized mice via the retroorbital sinus into EDTA-coated capillary tubes and was analyzed by a Hemavet 950FS (Drew Scientific) for complete blood counts. […]

NET formation = assay: Neutrophil isolation and NETosis assay; type: in vivo, mouse; conditions: CIA mice; n=4; p=0.03
From the text: as §1, with “Animals. […]” for “Animals. Experimental protocols were approved by the Institutional Animal Care and Use Committee of Boston Children's Hospital (Protocol number: 20-01-4096R).”

Body weight of CIA mice = type: in vivo, mouse; conditions: day 56, n=8
From the text: as §1, with “Animals. […]” for “Animals. Experimental protocols were approved by the Institutional Animal Care and Use Committee of Boston Children's Hospital (Protocol number: 20-01-4096R).”

[5] = tested on: arthritis in a mouse model; conditions: prophylactic treatment; cited from earlier work
[6] = tested on: primary tumor and metastasis; conditions: cancer; cited from earlier work

SMILES: Cc1c(-c2cc3ccccc3n2Cc2ccc(F)cc2)nc2cc(C(=O)N3CCC[C@@H](N)C3)ccn12 [JBI-589, (R)-(3-aminopiperidin-1-yl)(2-(1-(4-fluorobenzyl)-1H-indol-2-yl)-3-methylimidazo[1,2-a]pyridin-7-yl)methanone]
- arthritis score (DBA/1 J mice with CIA [1]; Day 36): 5±0.8
- arthritis score (DBA/1 J mice with CIA [1]; day 44, median (quartiles)): 9 (7-11)
- effect on RA (arthritis) (DBA/1 J mice with CIA [1]; twice daily regime (unpublished data)): significantly inhibits RA
- diastolic function as reflected by the E/A ratio (DBA/1 J mice with CIA [2]; CIA mice treated 26 consecutive days, 10 mg/kg once daily oral): comparable to healthy mice
- E/A ratio, higher than the placebo CIA group (DBA/1 J mice with CIA [2]; CIA mice treated 26 consecutive days, 10 mg/kg once daily oral, p<0.0001): 40%
- systolic left ventricular function vs vehicle (DBA/1 J mice with CIA [2]; CIA mice treated 26 days, p=0.09): no difference
- collagen type 1 deposition in the LV, lower than the vehicle treated control (DBA/1 J mice with CIA [3]; CIA mice treated 26 days, n=5, p=0.02): 5 times
- myofibroblast concentration (alpha-smooth-muscle actin) (DBA/1 J mice with CIA [3]; CIA mice, n=5, p=0.02): reduced
- deposition of TGF-β in heart tissue (DBA/1 J mice with CIA [3]; CIA mice, n=6, p=0.003): reduced
- number of circulating neutrophils vs vehicle (DBA/1 J mice with CIA [4]): no difference
- NET formation (NET formation): reduced
- body weight (health parameter) (Body weight of CIA mice): improved
- effect on arthritis [5]: alleviates arthritis
- neutrophil recruitment [6]: blocking neutrophil recruitment into the primary tumor and metastasis
